Legend:
[1] = biological target: T1, hα7-wt nAChR (Homo sapiens, UniProt P36544); test: Patch-clamp current recording (whole-cell voltage clamp), potentiation of choline current and PAM type; type: cell-based; set-up: key: Type 0 compounds minimally enhance the effect size of the current elicited by 1 mM choline.; Type 1 compounds enhance the effect size of the current elicited by 1 mM choline but minimally alter the kinetics of the receptor.; Type 2 compounds enhance the effect size of the current elicited by 1 mM choline while reducing the rate and/or the extent of desensitization.; Type 3 compounds enhance the effect size of the current elicited by 1 mM choline. When tested at higher concentrations up to 10 μM they completely inhibit desensitization, in particular a 1 mM choline application of 250 milliseconds.; Type 4 compounds allow for an initial desensitization of the receptor followed by a re-opening of the receptor during agonist application; conditions: hα7-wt nAChR-expressing GH4C1 cells, 1 mM choline
Protocol: The compounds of the present invention are classified as type 0-4, based on qualitative kinetic properties, as determined by whole-cell voltage-clamp recordings. This classification is based on the effect of an α7 PAM compound, as described hereinbefore, on the signal elicited by an agonist application. In particular, said agonist is choline at a concentration of 1 mM. In a preferred experimental setting, said α7 PAM compound and choline are simultaneously applied to the cell, as described hereinafter. Desensitization is defined as the closure of the receptor upon activation during the application of the agonist in whole-cell voltage-clamp electrophysiology measurements seen as the reduction of the […] current after initial activation by the agonist.
The definition of the PAM types 0-4 is described hereinafter: • Type 0 compounds minimally enhance the effect size of the current elicited by 1 mM choline. • Type 1 compounds enhance the effect size of the current elicited by 1 mM choline but minimally alter the kinetics of the receptor. In particular, the rate and the extent of desensitization, elicited by the agonist, is not affected. The compound-modulated response to 1 mM choline, therefore, is a close to linear scaling of the 1 mM choline response in absence of the α7 PAM compound. • Type 2 compounds enhance the effect size of the current elicited by 1 mM choline while reducing the rate and/or the extent of desensitization. • Type 3 compounds enhance the effect size of the current elicited by 1 mM choline. […] At low-potency concentrations of the α7 PAM compound, the agonist-induced activation, which is followed by desensitization, can still be separated from the compound-induced re-opening as an initial inward current-maximum. At higher potency concentrations of the α7 PAM compound, the re-opening occurs faster than the closure due to desensitization so that the initial current-maximum disappears.
A compound was considered to have interesting PAM-like activity when the potentiation of the peak current was at least 200% compared to the control choline response (=100%). Such compounds are classified as belonging to a particular PAM type in the Experimental Part. Compounds not meeting the condition are not classified as belonging to a particular PAM-type.
The compounds also have a potentiating effect on the response to choline when measured by whole-cell patch clamp electrophysiology in GH4C1 cells stably over-expressing the human wild-type α7 receptor.
Patch-clamp recording from mammalian cells has provided a powerful means of assessing the function of membrane-bound proteins thought to be subunits of ligand-gated ion channels. Activation of such proteins by endogenous or exogenous ligands cause opening of a pore associated with the receptor through which ions flow down their electrochemical gradient. In the case of the hα7-wt nAChR-expressing GH4C1 recombinant cell line the preferential permeability to calcium of this receptor means that calcium flows into the cell upon activation by ACh, choline and other nicotinic ligands giving rise to a calcium current. Since this receptor rapidly desensitizes in the presence of agonist it is important an application system is used which is capable of very rapid switching of solutions (<100 ms) to prevent partial or full desensitisation of receptor responses coincident with the time of agonist application. Consequently, a second convenient technique to assess the enhancement of nicotinic efficacy is patch-clamp recording from hα7-wt nAChR-expressing GH4C1 cells coupled with a rapid-application system.
• a) Assay Buffers • The external recording solution consisted of 152 mM NaCl, 5 mM KCl, 1 mM MgCl2, 1 mM Calcium, 10 mM HEPES; pH 7.3. […]

[2] = biological target: T1, hα7-wt nAChR; test: Ca2+ flux imaging (FDSS): potentiation of the choline response; type: cell-based; conditions: for EC50: Ca2+ assay as described in D.1, potentiation of choline response, hα7-wt nAChR, read-out: Potency (pEC50) (converted)
Method in brief: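 Cells expressing human α7-wt nAChR loaded with fluo-4AM (2 μM final) up to 120 min; HBSS/10 mM HEPES/5 mM CaCl2/0.1% BSA buffer. Compound (0.01–30 μM) applied up to 10 min before 100 μM choline; peak fluorescence measured on FDSS relative to choline alone (100%). EC50 from sigmoidal curves.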

T1 sequence (P36544 23-502): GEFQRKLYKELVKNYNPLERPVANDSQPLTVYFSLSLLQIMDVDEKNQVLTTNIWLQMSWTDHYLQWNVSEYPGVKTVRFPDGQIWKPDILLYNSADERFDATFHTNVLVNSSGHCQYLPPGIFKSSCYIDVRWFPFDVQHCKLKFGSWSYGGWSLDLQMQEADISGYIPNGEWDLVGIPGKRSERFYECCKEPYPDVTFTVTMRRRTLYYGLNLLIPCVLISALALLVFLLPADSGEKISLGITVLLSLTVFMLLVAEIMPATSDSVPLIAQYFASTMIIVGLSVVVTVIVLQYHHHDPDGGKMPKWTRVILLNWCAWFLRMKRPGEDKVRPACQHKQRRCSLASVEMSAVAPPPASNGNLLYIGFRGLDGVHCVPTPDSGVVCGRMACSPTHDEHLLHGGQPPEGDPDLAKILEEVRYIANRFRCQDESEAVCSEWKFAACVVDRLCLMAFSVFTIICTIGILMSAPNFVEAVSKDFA

Structure (SMILES) | PAM type [1] | melting point | EC50 [2] | Emax ([2]; read-out: % Efficacy)
Cc1cc(-n2nc(Nc3cccc(OC(F)(F)F)c3)cc2CC(=O)NC2CC2)ccn1 [Compound 117, N-cyclopropyl-1-(2-methyl-4-pyridinyl)-3-[[3-(trifluoromethoxy)phenyl]amino]-1H-pyrazole-5-acetamide] | 3 | 224.6 °C | 1200 nM | 
CNC(=O)Cc1cc(Nc2cc(OC)cc(C(F)(F)F)c2)nn1-c1ccnc(C)c1 [Compound 43, 3-[[3-methoxy-5-(trifluoromethyl)phenyl]amino]-N-methyl-1-(2-methyl-4-pyridinyl)-1H-pyrazole-5-acetamide] | 4 | 237.9 °C | 562 nM | 
Cc1cc(-n2nc(Nc3cccc(C(F)(F)F)c3)cc2CC(=O)NCC2CC2)ccn1 [Compound 47, N-(cyclopropylmethyl)-1-(2-methyl-4-pyridinyl)-3-[[3-(trifluoromethyl)phenyl]amino]-1H-pyrazole-5-acetamide] | 4 | 207.5 °C | 219 nM | 
COc1cc(Nc2cc(CC(=O)NC3CCC3)n(-c3ccnc(C)c3)n2)cc(C(F)(F)F)c1 [Compound 48, N-cyclobutyl-3-[[3-methoxy-5-(trifluoromethyl)phenyl]amino]-1-(2-methyl-4-pyridinyl)-1H-pyrazole-5-acetamide] | 4 | 249.2 °C | 79.4 nM | 
CCNC(=O)Cc1cc(Nc2cc(OC)cc(C(F)(F)F)c2)nn1-c1ccnc(C)c1 [Compound 45, N-ethyl-3-[[3-methoxy-5-(trifluoromethyl)phenyl]amino]-1-(2-methyl-4-pyridinyl)-1H-pyrazole-5-acetamide] | 4 | 248.6 °C | 200 nM | 
CCNC(=O)Cc1cc(Nc2ccc(F)c(F)c2)nn1-c1ccnc(C)c1 [Compound 28, 3-[(3,4-difluorophenyl)amino]-N-ethyl-1-(2-methyl-4-pyridinyl)-1H-pyrazole-5-acetamide] | 2 | 242.4 °C | 2510 nM | 
CC[C@H](O)Cc1cc(Nc2cccc(Cl)c2)nn1-c1ccnc(C)c1 [Compound 57, (alphaS)-3-[(3-chlorophenyl)amino]-alpha-ethyl-1-(2-methyl-4-pyridinyl)-1H-pyrazole-5-ethanol] | 2 | 149.3 °C | 2240 nM | 
Cc1cc(-n2nc(Nc3cccc(OC(F)(F)F)c3)cc2CC(=O)NC2CC2)cc(C)n1 [Compound 118, N-cyclopropyl-1-(2,6-dimethyl-4-pyridinyl)-3-[[3-(trifluoromethoxy)phenyl]amino]-1H-pyrazole-5-acetamide] | 2 | 230.8 °C | 324 nM | 
CCNC(=O)Cc1cc(Nc2cccc(C(F)(F)F)c2)nn1-c1ccnc(C)c1 [Compound 44, N-ethyl-1-(2-methyl-4-pyridinyl)-3-[[3-(trifluoromethyl)phenyl]amino]-1H-pyrazole-5-acetamide] | 2 | 228.9 °C | 603 nM | 
Cc1cc(-n2nc(Nc3cccc(OC(F)(F)F)c3)cc2CC(=O)NCC2CC2)ccn1 [Compound 119, N-(cyclopropylmethyl)-1-(2-methyl-4-pyridinyl)-3-[[3-(trifluoromethoxy)phenyl]amino]-1H-pyrazole-5-acetamide] | 2 | 191.7 °C | 324 nM | 
CC[C@H](O)Cc1cc(Nc2cc(F)c(F)cc2F)nn1-c1ccnc(C)c1 [Compound 21, (alphaS)-alpha-ethyl-1-(2-methyl-4-pyridinyl)-3-[(2,4,5-trifluorophenyl)amino]-1H-pyrazole-5-ethanol] | 2 | 166.6 °C | 3470 nM | 
Cc1cc(-n2nc(Nc3ccc4c(c3)OC(F)(F)O4)cc2CC(=O)NC2CC2)ccn1 [Compound 100, N-cyclopropyl-3-[(2,2-difluoro-1,3-benzodioxol-5-yl)amino]-1-(2-methyl-4-pyridinyl)-1H-pyrazole-5-acetamide] | 2 | 248.9 °C | 1260 nM | 
Cc1cc(-n2nc(Nc3cccc(Cl)c3F)cc2CC(=O)NCC2CC2)ccn1 [Compound 79, 3-[(3-chloro-2-fluorophenyl)amino]-N-(cyclopropylmethyl)-1-(2-methyl-4-pyridinyl)-1H-pyrazole-5-acetamide] | 4 | 220.5 °C | 302 nM | 
CC[C@H](O)Cc1cc(Nc2ccc3c(c2)OC(F)(F)O3)nn1-c1ccnc(C)c1 [Compound 93, (alphaS)-3-[(2,2-difluoro-1,3-benzodioxol-5-yl)amino]-alpha-ethyl-1-(2-methyl-4-pyridinyl)-1H-pyrazole-5-ethanol] | 2 | 138.3 °C | 1700 nM | 
Cc1cc(-n2nc(Nc3ccc4c(c3)OC(F)(F)O4)cc2CC(=O)NCC2CC2)ccn1 [Compound 101, N-(cyclopropylmethyl)-3-[(2,2-difluoro-1,3-benzodioxol-5-yl)amino]-1-(2-methyl-4-pyridinyl)-1H-pyrazole-5-acetamide] | 2 | 232.3 °C | 603 nM | 
CCNC(=O)Cc1cc(Nc2cccc(Cl)c2F)nn1-c1ccnc(C)c1 [Compound 73, 3-[(3-chloro-2-fluorophenyl)amino]-N-ethyl-1-(2-methyl-4-pyridinyl)-1H-pyrazole-5-acetamide] | 3 | 205.1 °C | 1260 nM | 
COCc1cc(Nc2ccc(F)c(F)c2)nn1-c1ccnc(C)c1 [Compound 22, N-(3,4-difluorophenyl)-5-(methoxymethyl)-1-(2-methyl-4-pyridinyl)-1H-pyrazol-3-amine] | 0 | 184.2 °C | 1910 nM | 963%
CCNC(=O)Cc1cc(Nc2ccc3c(c2)OC(F)(F)O3)nn1-c1ccnc(C)c1 [Compound 98, 3-[(2,2-difluoro-1,3-benzodioxol-5-yl)amino]-N-ethyl-1-(2-methyl-4-pyridinyl)-1H-pyrazole-5-acetamide] | 2 | 239.2 °C | 1200 nM | 
CC[C@H](O)Cc1cc(Nc2ccc(OC)c(C(F)(F)F)c2)nn1-c1ccnc(C)c1 [Compound 38, (alphaS)-alpha-ethyl-3-[[4-methoxy-3-(trifluoromethyl)phenyl]amino]-1-(2-methyl-4-pyridinyl)-1H-pyrazole-5-ethanol] | 2 | 129 °C | 1320 nM | 
Cc1cc(-n2nc(Nc3ccc4c(c3)OC(F)(F)O4)cc2CCC(=O)N(C)C)ccn1 [Compound 99, 3-[(2,2-difluoro-1,3-benzodioxol-5-yl)amino]-N,N-dimethyl-1-(2-methyl-4-pyridinyl)-1H-pyrazole-5-propanamide] | 4 | 132 °C | 490 nM | 
